Reference: PMC12390684 (Viruses, 2025)
“And” between values parts separate entries of the source, which are not always exact repeats. Identical values can stand only once. Like-named read-outs stand apart in the source and are kept apart here.

How the values were obtained:
HIV-1Laï = experiment: microbe, parasite or virus in culture; assay type: cell-based; conditions: for EC50: Human immunodeficiency virus 1, MAGI; for SI (CC50/EC50): selectivity index
[1] = Cytotoxicity (CellTiter 96 AQueous); assay type: cell-based; conditions: human
[2] = molecular target: IN-GCN2 interaction (6xHis-IN / GST-GCN2) (UniProt P04585+Q9P2K8); experiment: biochemical; assay type: binding, HIV-1 IN; human GCN2; conditions: for IC50: IC50, inhibition of IN-GCN2 interaction, SAR study, fresh dilutions from powder, at least three independent experiments
HIV-1 IN [3] = molecular target: T1, HIV-1 IN (Human immunodeficiency virus type 1 group M subtype B, UniProt P04585); conditions: cited from earlier work
HIV-1 IN [4] = molecular target: T1, HIV-1 IN; experiment: Strand transfer (ST) gel-based assay; assay type: biochemical
[5] = 24 h, 24 h infection, read-out: EC50
[6] = P4 MAGI CCR5+ cells, 24 h, read-out: CC50

Sequence of IN-GCN2 interaction (6xHis-IN / GST-GCN2) (Q9P2K8 192-1024, other chains not shown): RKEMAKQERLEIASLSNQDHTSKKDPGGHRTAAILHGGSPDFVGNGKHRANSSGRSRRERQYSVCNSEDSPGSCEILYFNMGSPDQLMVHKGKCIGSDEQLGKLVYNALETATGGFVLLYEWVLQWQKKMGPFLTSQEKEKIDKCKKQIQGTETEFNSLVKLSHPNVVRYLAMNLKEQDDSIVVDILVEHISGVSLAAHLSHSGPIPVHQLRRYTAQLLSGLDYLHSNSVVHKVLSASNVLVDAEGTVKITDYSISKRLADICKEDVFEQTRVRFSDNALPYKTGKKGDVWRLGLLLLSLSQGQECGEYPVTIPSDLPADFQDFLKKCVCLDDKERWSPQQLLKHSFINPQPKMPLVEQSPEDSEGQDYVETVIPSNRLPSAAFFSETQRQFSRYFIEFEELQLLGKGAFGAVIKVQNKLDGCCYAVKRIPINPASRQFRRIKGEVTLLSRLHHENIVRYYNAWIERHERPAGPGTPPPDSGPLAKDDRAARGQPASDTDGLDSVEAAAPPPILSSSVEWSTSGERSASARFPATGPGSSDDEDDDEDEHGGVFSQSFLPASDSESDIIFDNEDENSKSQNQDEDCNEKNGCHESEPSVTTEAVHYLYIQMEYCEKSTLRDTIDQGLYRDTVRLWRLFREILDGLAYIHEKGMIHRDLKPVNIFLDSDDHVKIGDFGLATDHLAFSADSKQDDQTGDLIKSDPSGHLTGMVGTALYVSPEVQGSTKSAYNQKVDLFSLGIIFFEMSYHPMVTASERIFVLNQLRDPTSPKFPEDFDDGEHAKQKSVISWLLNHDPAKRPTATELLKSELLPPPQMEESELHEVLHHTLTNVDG

`CCC1(O)CC(OC2CC(N(C)C)C(OC3CC4OC5CC(=O)C(C)OC5OC4C(C)O3)C(C)O2)c2c(cc3c(c2O)C(=O)c2c(O)ccc(O)c2C3=O)C1C(=O)OC` (centres unmarked) [Compound 1a, cinerubin B] gave an EC50 (HIV-1Laï; 24 h infection, read-out: EC50) of 0.494 µM and a CC50 ([1]; 24 h, read-out: CC50) greater than 5000 nM.

In the case of `CCC1(O)CC(OC2CC(N(C)C)C(O)C(C)O2)c2c(cc3c(c2O)C(=O)c2c(O)cccc2C3=O)C1C(=O)OC` (centres unmarked) [Compound 1f], the EC50 (HIV-1Laï; 24 h infection, read-out: EC50) is reported as 1.39 µM, the CC50 ([1]; 24 h, read-out: CC50) is reported as 2350 nM and the IC50 [2] is reported as 3.23 µM. The “IN-GCN2 interaction (%)” value ([2]; screen, single dose 100 µM, single replicate, residual AlphaLISA signal normalized to DMSO control) was 43.80%.

In the case of `CCCCCCCC(=O)OCC(=O)C1(O)Cc2c(O)c3c(c(O)c2C(OC2CC(N)C(O)C(C)O2)C1)C(=O)c1c(OC)cccc1C3=O` (centres unmarked) [Compound 1g, adriamycin octanoate], the EC50 (HIV-1Laï; [5]) is reported as 0.211 µM, the “SI (CC50/EC50)” value (HIV-1Laï) is reported as 7.9 and the “SI (CC50/EC50)” value (HIV-1Laï; listed as NSC149584) is reported as greater than 10.1. The CC50 ([1]; 24 h, read-out: CC50) was 1670 nM and the IC50 [2] was 3.95 µM and 4 µM.

For `COc1cccc2c1C(=O)c1c(O)c3c(c(O)c1C2=O)CC(O)(C(C)=O)CC3OC1CC(N)C(OC2CC(O)C(O)C(C)O2)C(C)O1` (centres unmarked) [Compound 1h], the EC50 (HIV-1Laï; [5]) was 1.66 µM, the “SI (CC50/EC50)” value (HIV-1Laï) was greater than 3 and the CC50 at 24 h [1] was greater than 5 µM. It also gave an IC50 [2] of 6.5 µM.

`CCOC(OCC)C(=O)OCC(=O)C1(O)Cc2c(O)c3c(c(O)c2C(OC2CC(N)C(O)C(C)O2)C1)C(=O)c1c(OC)cccc1C3=O` (centres unmarked) [Compound 1i] gave an EC50 (HIV-1Laï; 24 h) greater than 5 µM, a CC50 at 24 h [1] greater than 5 µM and an IC50 [2] of 8.05 µM.

`COc1cccc2c1C(=O)c1c(O)c3c(c(O)c1C2=O)CC(O)(C(C)=O)CC3OC1CC([N+](C)(C)C)C(O)C(C)O1` (centres unmarked) [Compound 1q] showed an EC50 (HIV-1Laï; [5]) greater than 5 µM, a CC50 ([1]; 24 h, read-out: CC50) greater than 5000 nM and an IC50 [2] of 75 µM.

In the case of `COc1cccc2c1C(=O)c1c(O)c3c(c(O)c1C2=O)CC(O)(C(=O)CO)CC3OC1CC(N(C)C)C(O)C(C)O1` (centres unmarked) [Compound 1r], the “inhibition of IN in vitro, in words” value (HIV-1 IN [3]) is listed as “micromolar inhibitors”, the CC50 at 24 h [1] is listed as 0.225 µM and the IC50 [2] is listed as greater than 100 µM.

For `COc1ccc2ccccc2c1/C=C/C(=O)c1ccc(OCc2ccccc2)cc1O` [Compound 2a], the “effect on HIV replication, in words” value (HIV-1Laï) was “pro-viral”, the CC50 at 24 h [1, 6] was greater than 5 µM and the IC50 [2] was 2.6 µM.

In the case of `COc1cc(OC)c2c(O)c3c(c(-c4ccc5cc6c(c(O)c5c4O)C(=O)CC(C)(O)C6)c2c1)CC(C)OC3C` (centres unmarked) [Compound 2b, Karwinskia toxin T-544], the IC50 (HIV-1 IN [3]; read-out: IC50, inhibition of both 3′-P and ST) is given as 21 µM, the EC50 (HIV-1Laï; [5]) is given as greater than 5 µM and the CC50 at 24 h ([1]; 24 h, read-out: CC50) is given as greater than 5 µM.

With `O=C1c2ccccc2C(=O)c2c(NCCNCCO)ccc(O)c21` [Compound 2d] the “viral replication, maximum, relative to DMSO control” value (HIV-1Laï; dose-dependent increase (pro-viral effect)) was “up to 290%”, the CC50 at 24 h [1, 6] was greater than 5 µM and the IC50 [2] was 1.2 µM. For the same molecule, the “fold loss of potency at inhibiting ST compared to NSC279836” value (HIV-1 IN [4]) was “around 20 fold” and the “ST activity compared to the DMSO control” value (HIV-1 IN [4]; increase at lower concentrations) was “up to 170%”.

`O=C1c2c(O)ccc(O)c2C(=O)c2c(NCCO)ccc(NCCO)c21` [Compound 2e] gave an EC50 (HIV-1Laï; [5]) greater than 5 µM, a CC50 at 24 h [1] greater than 5 µM and an IC50 [2] of 4.4 µM.

`O=C1c2c(O)ccc(O)c2C(=O)c2c(NCCOCCO)ccc(NCCOCCO)c21` [Compound 2g] showed an EC50 (HIV-1Laï; [5]) greater than 5 µM, a CC50 at 24 h [1] greater than 5 µM and an IC50 [2] of 6.6 µM.

`CC(=O)Nc1ccc(Nc2ccc(NCCO)c3c2C(=O)c2c(O)ccc(O)c2C3=O)cc1` [Compound 2h] gave an EC50 (HIV-1Laï; [5]) greater than 5 µM, a CC50 at 24 h [1, 6] greater than 5 µM and an IC50 [2] of 10.6 µM.

In the case of `O=C1c2c(O)ccc(O)c2C(=O)c2c(NCCCCO)ccc(NCCCCO)c21` [Compound 2i], the EC50 (HIV-1Laï; [5]) is reported as greater than 5 µM, the CC50 at 24 h [1, 6] is reported as greater than 5 µM and the IC50 [2] is reported as 11.2 µM.

In the case of `O=C1c2c(O)ccc(O)c2C(=O)c2c(NCCCCCO)ccc(NCCCCCO)c21` [Compound 2k], the EC50 (HIV-1Laï; [5]) is reported as greater than 5 µM, the CC50 at 24 h [1, 6] is reported as greater than 5 µM and the IC50 [2] is reported as 12.2 µM.
